Data from ChEMBL document CHEMBL5335778, “Bench-to-bedside: Innovation of small molecule anti-SARS-CoV-2 drugs in China” (Eur J Med Chem, 2023).

Legend:
Type in all cases: functional, organism-based
SARS-CoV-2 [1] = experiment: Antiviral activity against SARS-CoV-2 variant Omicron BA.2 infected in African green monkey Vero E6 cells assessed as reduction in virus-induced cytopathic effect; settings: Severe acute respiratory syndrome coronavirus 2, Omicron BA.2, Vero C1008
SARS-CoV-2 [2] = experiment: Antiviral activity against SARS-CoV-2 Omicron BA1 variant infected in human A549-ACE2 cells assessed as reduction in viral load measured upto 4 days by viral plaque assay; settings: Severe acute respiratory syndrome coronavirus 2, A549-ACE2, 96 h
SARS-CoV-2 [3] = experiment: Antiviral activity against SARS-CoV-2 Omicron BA1 variant infected human A549-ACE2 cells assessed as inhibition of viral replication; settings: Severe acute respiratory syndrome coronavirus 2, Omicron BA1, A549-ACE2

SMILES	EC50 (SARS-CoV-2 [1])	also measured
C[C@H](OC(C)(C)C)[C@H](NC(=O)OCc1ccccc1)C(=O)N[C@@H](CC1CCCCC1)C(=O)N[C@H](C=O)C[C@@H]1CCNC1=O	21.7 nM	–
CC(C)C[C@H](NC(=O)OCc1ccccc1)C(=O)N[C@@H](C[C@@H]1CCNC1=O)C(O)S(=O)(=O)O (some centres undefined)	21.7 nM	–
N#Cc1ccccc1-c1cc(-c2cc(Cl)cc(OCC3CC3)c2)c(=O)n(-c2cccnc2)c1	17.1 nM	–
CC(C)(C)OC(=O)Nc1cccn([C@@H](CC2CC2)C(=O)N[C@@H](C[C@@H]2CCNC2=O)C(=O)C(=O)NCc2ccccc2)c1=O	17.1 nM	–
C[C@H](NC(=O)[C@@H](c1cccnc1)N(C(=O)C(Cl)Cl)c1ccc(-c2ccccc2)cc1)c1ccccc1	21.7 nM	–
CC(C)C[C@H](NC(=O)c1cc2c(F)cccc2[nH]1)C(=O)NN(C[C@@H]1CCNC1=O)C(=O)[C@@H](F)Cl	17.1 nM	–
COc1cccc2[nH]c(C(=O)N[C@@H](CC(C)C)C(=O)N[C@@H](C[C@@H]3CCCNC3=O)C(=O)COC(=O)c3c(C(F)(F)F)cccc3C(F)(F)F)cc12	21.7 nM	–
C[C@H](NC(=O)[C@@H](c1cccnc1)N(C(=O)c1ccco1)c1ccc(-c2ccccc2)cc1)c1ccccc1	21.7 nM	–
CSc1ccc2c(c1)NC(=O)C(F)(F)C2=O	17.1 nM	–
O=C1N(c2cncc3ccccc23)CNC12CC(c1ccccc1Cl)C2 (centres undefined)	17.1 nM	–
CC(C)C[C@H](NC(=O)OCC1C[C@H]2CCC[C@@H](C1)C2)C(=O)N[C@H](C=O)C[C@@H]1CCNC1=O (some centres undefined)	21.7 nM	–
COc1ccc2cc1Oc1ccc(cc1)C[C@H]1c3c(cc4c(c3Oc3cc5c(cc3OC)CCN(C)[C@@H]5C2)OCO4)CCN1C [CEPHARANTHINE]	–	EC50 (SARS-CoV-2 [2]): 100 nM
Br.[2H]c1cc([C@]2(C#N)O[C@H](COC(=O)C(C)C)[C@@H](OC(=O)C(C)C)[C@H]2OC(=O)C(C)C)n2ncnc(N)c12 [DEUREMIDEVIR HYDROBROMIDE]	–	EC50 (SARS-CoV-2 [3]): 300 nM
COc1cccc2[nH]c(C(=O)N[C@@H](CC(C)C)C(=O)N[C@@H](C[C@@H]3CCNC3=O)C(=O)CO)cc12 [PF-00835231]	21.7 nM	–
